# In US4383113A, “Agricultural sulfonamides” (E. I. Du Pont de Nemours and Company, priority 1981, dated 1983):
# Legend:
# [1] = system: pea; experiment: Test D pre-emergence on soil; type: in vivo, peas; conditions: 1/8 kg/ha
# Excerpt: (§1) The high herbicidal activity of one of the compounds from within the scope of the invention is evident from the results obtained in this test. The experiment concerned pre-emergence applications on soil. The containers used were 25 cm diameter plastic pots filled with Fallsington silt loam. One set of pots was planted to weeds the seeds of which were uniformly mixed with the top 1.2 cm layer of soil. The species selected were: johnsongrass (Sorghum halepense), barnyardgrass (Echinochloa crusgalli), crabgrass (Digitaria sanguinalis), giant foxtail (Setaria faberii), velvetleaf (Abutilon theophrasti), jimsonweed (Datura stramonium), mustard (Brassica arvensis) and pigweed (Amaranthus retroflexus). Another set of pots was planted to the following crops with from one to four species per pot: corn (planting depth 3.7 cm), cotton, soybeans, sunflower, Clinton oats, wheat, Black Valentine beans, rice, sorghum, peas, flax and peanuts (all at 2.5 cm depth), cucumbers, cabbage, alfalfa, safflower, sugarbeets, tomato, spinach, barley and Kentucky bluegrass (all at 1.2 cm depth). Immediately after planting, the test chemical was applied to the soil surfaces dissolved in a non-phytotoxic solvent. One pot from the weed phase and one of each of the crop species were left untreated for the purpose of comparison. […]
# [2] = system: wheat; experiment: Test D pre-emergence on soil; type: in vivo; conditions: 1/8 kg/ha
# Excerpt: (§2) The high herbicidal activity of one of the compounds from within the scope of the invention is evident from the results obtained in this test. The experiment concerned pre-emergence applications on soil. The containers used were 25 cm diameter plastic pots filled with Fallsington silt loam. One set of pots was planted to weeds the seeds of which were uniformly mixed with the top 1.2 cm layer of soil. The species selected were: johnsongrass (Sorghum halepense), barnyardgrass (Echinochloa crusgalli), crabgrass (Digitaria sanguinalis), giant foxtail (Setaria faberii), velvetleaf (Abutilon theophrasti), jimsonweed (Datura stramonium), mustard (Brassica arvensis) and pigweed (Amaranthus retroflexus). Another set of pots was planted to the following crops with from one to four species per pot: corn (planting depth 3.7 cm), cotton, soybeans, sunflower, Clinton oats, wheat, Black Valentine beans, rice, sorghum, peas, flax and peanuts (all at 2.5 cm depth), cucumbers, cabbage, alfalfa, safflower, sugarbeets, tomato, spinach, barley and Kentucky bluegrass (all at 1.2 cm depth). Immediately after planting, the test chemical was applied to the soil surfaces dissolved in a non-phytotoxic solvent. One pot from the weed phase and one of each of the crop species were left untreated for the purpose of comparison. The treated and untreated pots were promptly watered with approximately 4 mm of simulated rainfall and then held in a greenhouse for several weeds. Visual weed and crop response ratings were made 28 days after treatment utilizing the rating system as described above for test procedure A. The data are given in Table XV.
# [3] = system: corn; experiment: Test D pre-emergence on soil; type: in vivo; conditions: 1/8 kg/ha
# Excerpt: as §2
# [4] = system: alfalfa; experiment: Test D pre-emergence on soil; type: in vivo; conditions: 1/8 kg/ha
# Excerpt: as §2
# [5] = system: grasses; experiment: Test D pre-emergence on soil; type: in vivo; conditions: 1/64 kg/ha
# Excerpt: as §2
# [6] = system: cabbage; experiment: Test D pre-emergence on soil; type: in vivo; conditions: 1/8 kg/ha
# Excerpt: as §2
# [7] = system: sorghum; experiment: Test D pre-emergence on soil; type: in vivo; conditions: 1/8 kg/ha
# Excerpt: as §2
# [8] = system: spinach; experiment: Test D pre-emergence on soil; type: in vivo; conditions: 1/8 kg/ha
# Excerpt: as §2
# [9] = system: sugarbeet; experiment: Test D pre-emergence on soil; type: in vivo, sugarbeets; conditions: 1/8 kg/ha
# Excerpt: as §1
# [10] = system: Ky. bluegrass; experiment: Test D pre-emergence on soil; type: in vivo, Kentucky bluegrass; conditions: 1/8 kg/ha
# Excerpt: as §1
# [11] = system: morningglory; experiment: Test E pre-emergence; type: in vivo, Ipomoea hederacea
# Excerpt: (§3) The containers used were 25 cm diameter plastic pots filled with fertilized and limed Fallsington silt loam. Plantings of the following weed species were made twice, at a 10-day interval: mustard (Brassica arvensis), cocklebur (Xanthium spp.), morningglory (Ipomoea hederacea), cassia (Cassia tora), velvetleaf (Abutilon theophrasti), alfalfa (used as an indicator species), kochia (Kochia scoparia), sesbania (Sesbania exaltata), Russian thistle (Salsola kali), jimsonweed (Datura stramonium),and nutsedge (Cyperus rotundus). In addition, wheat and barley were planted in separate 15 cm diameter plastic pots filled with the same soil at the time of the early planting only. All plantings were treated with the test chemicals dissolved in a non-phytotoxic solvent immediately following completion of the second planting operation. At this time, the wheat was around 15-17.5 cm tall and the barley 12.5 to 15 cm tall, both in the 2-leaf stage of growth. The weed species of the earliest planting date were from 2.5 to 12.5 cm tall. The rates of application selected were 0.004, 0.007, 0.015 and 0.030 kg/ha for the weed phase and 0.12, 0.25 and 0.50 kg/ha for wheat and barley. The post-emergence part of this test was visually rated for plant response 21 days after treatment, and the pre-emergence part 28 days after treatment.
# [12] = system: Russian thistle; experiment: Test E pre-emergence; type: in vivo, Salsola kali
# Excerpt: as §3
# [13] = system: nutsedge; experiment: Test E pre-emergence; type: in vivo, Cyperus rotundus
# Excerpt: as §3
# [14] = system: kochia; experiment: Test E pre-emergence; type: in vivo, Kochia scoparia
# Excerpt: as §3
# [15] = system: alfalfa; experiment: Test E pre-emergence; type: in vivo
# Excerpt: as §3
# [16] = system: sesbania; experiment: Test E pre-emergence; type: in vivo, Sesbania exaltata; conditions: 1/64 kg/ha
# Excerpt: as §3
# [17] = system: mustard; experiment: Test E pre-emergence; type: in vivo, Brassica arvensis
# Excerpt: as §3
# [18] = system: velvetleaf; experiment: Test E pre-emergence; type: in vivo, Abutilon theophrasti
# Excerpt: as §3
# [19] = system: nutsedge; experiment: Test E post-emergence; type: in vivo, Cyperus rotundus
# Excerpt: as §3
# [20] = system: mustard; experiment: Test E post-emergence; type: in vivo, Brassica arvensis
# Excerpt: as §3
# [21] = system: wheat; experiment: Test E post-emergence; type: in vivo; conditions: 1/2 kg/ha
# Excerpt: as §3
# [22] = system: cocklebur; experiment: Test E post-emergence; type: in vivo, Xanthium spp.
# Excerpt: as §3
# [23] = system: barley; experiment: Test E post-emergence; type: in vivo; conditions: 1/2 kg/ha
# Excerpt: as §3
# [24] = system: quackgrass; experiment: Test I perennial foliage spray; type: in vivo, Agropyron repens
# Excerpt: (§4) Five-inch in diameter plastic pots were filled with a 50-50 mixture of Fallsington silt loam soil and sand and seeds of the following planted (one plant species per pot): milkweed vine (Morrenia odorata), plantain (Plantago spp.), burdock (Arctium minus), field bindweed (Convolvulus arvensis), dandelion (Taraxacum officinale), horsenettle (Solanum carolinense), bermudagrass (Cynodon dactylon), quackgrass (Agropyron repens), dallisgrass (Paspalum dilatatum) and johnsongrass (Sorghum halepense). The pots were placed in the greenhouse and the plants grown for several weeks.
# (§5) The compound evaluated was diluted with a non-phytotoxic solvent and sprayed on the plant foliage. Untreated and solvent controls were included for comparison. One and eight weeks after treatment, a visual rating of the compound's effects on plant growth were made.
# [25] = system: field bindweed; experiment: Test I perennial foliage spray; type: in vivo, Convolvulus arvensis
# Excerpt: as §4, §5
# [26] = system: bermudagrass; experiment: Test I perennial foliage spray; type: in vivo, Cynodon dactylon; conditions: 1 week
# Excerpt: as §4, §5
# [27] = system: dandelion; experiment: Test I perennial foliage spray; type: in vivo, Taraxacum officinale
# Excerpt: as §4, §5
# [28] = system: johnsongrass; experiment: Test I perennial foliage spray; type: in vivo, Sorghum halepense
# Excerpt: as §4, §5
# [29] = system: horsenettle; experiment: Test I perennial foliage spray; type: in vivo, Solanum carolinense
# Excerpt: as §4, §5
# [30] = system: dallisgrass; experiment: Test I perennial foliage spray; type: in vivo, Paspalum dilatatum
# Excerpt: as §4, §5
# [31] = system: burdock; experiment: Test I perennial foliage spray; type: in vivo, Arctium minus
# Excerpt: as §4, §5
# [32] = system: plantain; experiment: Test I perennial foliage spray; type: in vivo, Plantago spp.
# Excerpt: as §4, §5
# [33] = system: milkweed vine; experiment: Test I perennial foliage spray; type: in vivo, Morrenia odorata
# Excerpt: as §4, §5
compound,measurement,setting,value
COC(=O)c1ccccc1S(=O)(=O)NC(=O)Nc1nc(OC)cc(OC)n1 [drawing 586],response rating,[1],10C
same,response rating,[2],10C
same,response rating,[3],10C
same,response rating,[4],10C
same,response rating,[5],6G
same,response rating,[6],10C
same,response rating,[7],10C
same,response rating,[8],10C
same,response rating,[9],10C
same,response rating,[10],10C
COc1nc(NC(=O)NS(=O)(=O)c2ccccc2C(=O)OC(C)C)nc(OC)n1 [drawing 587],response rating,[11]; 1/32 kg/ha,8G
same,response rating,[12]; 1/32 kg/ha,9C
same,response rating,[12]; 1/64 kg/ha,7C
same,response rating,[12]; 1/128 kg/ha,7C
same,response rating,[12]; 1/256 kg/ha,5C
same,response rating,[13]; 1/64 kg/ha,9G
same,response rating,[13]; 1/128 kg/ha,8G
same,response rating,[13]; 1/256 kg/ha,7G
same,response rating,[14]; 1/32 kg/ha,10C
same,response rating,[14]; 1/64 kg/ha,10C
same,response rating,[14]; 1/128 kg/ha,10C
same,response rating,[15]; 1/64 kg/ha,5G
same,response rating,[15]; 1/256 kg/ha,5G
same,response rating,[16],8G
same,response rating,[17]; 1/32 kg/ha,10C
same,response rating,[17]; 1/64 kg/ha,10C
same,response rating,[17]; 1/128 kg/ha,10C
COc1nc(C)nc(NC(=O)NS(=O)(=O)c2ccccc2C(=O)OC(C)C)n1 [drawing 588],response rating,[18]; 1/32 kg/ha,10C
same,response rating,[18]; 1/64 kg/ha,10C
same,response rating,[11]; 1/32 kg/ha,10C
same,response rating,[11]; 1/64 kg/ha,10C
same,response rating,[12]; 1/32 kg/ha,10C
same,response rating,[12]; 1/64 kg/ha,10C
same,response rating,[12]; 1/128 kg/ha,8C
same,response rating,[12]; 1/256 kg/ha,7C
same,response rating,[13]; 1/32 kg/ha,8G
same,response rating,[13]; 1/64 kg/ha,8G
same,response rating,[14]; 1/32 kg/ha,10C
same,response rating,[14]; 1/64 kg/ha,10C
same,response rating,[14]; 1/128 kg/ha,10C
same,response rating,[15]; 1/256 kg/ha,7G
same,response rating,[17]; 1/32 kg/ha,10C
same,response rating,[17]; 1/64 kg/ha,10C
same,response rating,[17]; 1/128 kg/ha,10C
same,response rating,[17]; 1/256 kg/ha,10C
COc1nc(NC(=O)NS(=O)(=O)c2ccccc2C(=O)OC(C)C)nc(OC)n1 [drawing 589],response rating,[19]; 1/32 kg/ha,10G
same,response rating,[20]; 1/32 kg/ha,10C
same,response rating,[20]; 1/64 kg/ha,10C
same,response rating,[20]; 1/128 kg/ha,10C
same,response rating,[20]; 1/256 kg/ha,10C
same,response rating,[21],2G
same,response rating,[22]; 1/32 kg/ha,10C
same,response rating,[22]; 1/64 kg/ha,10C
same,response rating,[22]; 1/128 kg/ha,10C
same,response rating,[22]; 1/256 kg/ha,10C
COc1nc(C)nc(NC(=O)NS(=O)(=O)c2ccccc2C(=O)OC(C)C)n1 [drawing 590],response rating,[19]; 1/32 kg/ha,10C
same,response rating,[19]; 1/256 kg/ha,3G
same,response rating,[20]; 1/32 kg/ha,10C
same,response rating,[20]; 1/64 kg/ha,10C
same,response rating,[20]; 1/128 kg/ha,10C
same,response rating,[20]; 1/256 kg/ha,10C
same,response rating,[23],5G
same,response rating,[22]; 1/32 kg/ha,10C
same,response rating,[22]; 1/64 kg/ha,10C
same,response rating,[22]; 1/128 kg/ha,10C
same,response rating,[22]; 1/256 kg/ha,10C
COC(=O)c1ccccc1S(=O)(=O)NC(=O)Nc1nc(C)cc(C)n1 [drawing 611],plant response rating,"[24]; 1 week, 1/4 kg/ha",7C
same,plant response rating,"[24]; 1 week, 1/8 kg/ha",6C
same,plant response rating,"[24]; 8 weeks, 1/4 kg/ha",10C
same,plant response rating,"[24]; 8 weeks, 1/8 kg/ha",10C
same,plant response rating,"[25]; 1 week, 1/4 kg/ha",2C
same,plant response rating,"[25]; 1 week, 1/8 kg/ha",0
same,plant response rating,"[25]; 8 weeks, 1/4 kg/ha",8C
same,plant response rating,"[25]; 8 weeks, 1/8 kg/ha",7C
same,plant response rating,[26]; 1/4 kg/ha,6C
same,plant response rating,[26]; 1/8 kg/ha,5C
same,plant response rating,"[27]; 1 week, 1/4 kg/ha",0
same,plant response rating,"[27]; 1 week, 1/8 kg/ha",0
same,plant response rating,"[27]; 8 weeks, 1/4 kg/ha",10C
same,plant response rating,"[27]; 8 weeks, 1/8 kg/ha",10C
same,plant response rating,"[28]; 1 week, 1/4 kg/ha",9C
same,plant response rating,"[28]; 1 week, 1/8 kg/ha",8C
same,plant response rating,"[28]; 8 weeks, 1/4 kg/ha",10C
same,plant response rating,"[28]; 8 weeks, 1/8 kg/ha",10C
same,plant response rating,"[29]; 1 week, 1/4 kg/ha",1C
same,plant response rating,"[29]; 1 week, 1/8 kg/ha",0
same,plant response rating,"[29]; 8 weeks, 1/4 kg/ha",10C
same,plant response rating,"[29]; 8 weeks, 1/8 kg/ha",5C
same,plant response rating,"[30]; 1 week, 1/4 kg/ha",6C
same,plant response rating,"[30]; 1 week, 1/8 kg/ha",6C
same,plant response rating,"[30]; 8 weeks, 1/4 kg/ha",10C
same,plant response rating,"[31]; 1 week, 1/4 kg/ha",0
same,plant response rating,"[31]; 1 week, 1/8 kg/ha",0
same,plant response rating,"[31]; 8 weeks, 1/4 kg/ha",10C
same,plant response rating,"[31]; 8 weeks, 1/8 kg/ha",4C
same,plant response rating,"[32]; 1 week, 1/4 kg/ha",0
same,plant response rating,"[32]; 1 week, 1/8 kg/ha",0
same,plant response rating,"[32]; 8 weeks, 1/4 kg/ha",10C
same,plant response rating,"[32]; 8 weeks, 1/8 kg/ha",10C
same,plant response rating,"[33]; 1 week, 1/4 kg/ha",0
same,plant response rating,"[33]; 1 week, 1/8 kg/ha",0
same,plant response rating,"[33]; 8 weeks, 1/4 kg/ha",10C
same,plant response rating,"[33]; 8 weeks, 1/8 kg/ha",10C
